For one data set, the system named is C28 colon tumor. The data set can be described thus: C28 colon tumor xenograft, FZD8-Fc variants (Example 17). The note with it: C28 established tumors; 15 mg/kg i.p. twice a week; after three weeks of treatment. The format is in vivo, NOD/SCID mice. The method, then:
Dissociated C28 colon tumor cells (10,000 cells) were injected subcutaneously into 6-8 week old male NOD/SCID mice. Tumors were allowed to grow for 56 days until they reached an average volume of 175 mm^3. The mice were randomized (n=10 per group) and treated with FZD8-Fc constructs 54F03, 54F23, 54F26, or a control antibody at a dose of 15 mg/kg twice a week. Administration of the FZD8-Fc variants and control antibody was performed via injection into the intraperitoneal cavity. Tumor growth was monitored and tumor volumes were measured with electronic calipers at the indicated time points. Data are expressed as mean±S.E.M.

The next data set relates to PN4 pancreatic tumors. The data set can be described thus: In vivo limiting dilution assay of treated PN4 tumors. Also on record: species or system NOD/SCID mice. Conditions: day 75 after injection of 30, 90, 270 cells, control 7 out of 30. An excerpt: Limiting dilution assays (LDA) can be used to assess the effect of therapeutic agents on solid tumor cancer stem cells and on the tumorigenicity of a tumor comprising the cancer stem cells. Such assays can be used to determine the frequency of cancer stem cells in tumors from animals treated with the FZD8-Fc fusion protein or other agent and to compare that frequency to the frequency of cancer stem cells in tumors from control animals. Control and treated tumors from the PN4 xenograft study described above were harvested at the end of the study (day 85). The tumors were processed and dissociated into single cells. […] The human cells in the suspension were harvested, counted, and stained for cell surface markers and appropriate cell doses (30, 90, and 270 cells) in FACS buffer were mixed in a 1:1 mixture with Matrigel and injected subcutaneously in NOD/SCID mice (10 mice per cell dose per treatment group). […] At the desired time point, the percentage of mice with detectable tumors was determined in all groups injected with FZD8-Fc-treated tumor cells and compared to the percentage of mice with detectable tumors in the controls. For example, the number of mice injected with 125 control antibody-treated tumor cells that have detectable tumors is determined and compared to the number of mice injected with 125 FZD8-Fc treated tumor cells that have detectable tumors. […]

Data set [1] concerns canonical Wnt signaling pathway. The data set can be described thus: Luciferase reporter assay in STF293 cells with Wnt3a-conditioned medium. It is filed as cell-based. The note with it: blocking of Wnt3a-induced luciferase in STF293 cells; relative to reference standard set at 100%. The method, then: The ability of the FZD8-Fc variants to block or inhibit activation of the Wnt signaling pathway was determined in vitro using a luciferase reporter assay. STF293 cells were cultured in DMEM supplemented with antibiotics and 10% FCS. The STF293 cells are stably transfected with a reporter vector containing seven copies of the TCF transcriptional response element linked to a promoter upstream of a firefly luciferase reporter gene. This construct measures the activity of the canonical Wnt signaling pathway. The cells were added to cultures plates at 10,000 cells per well. After an overnight incubation the FZD8-Fc variants or control mouse JAG1-Fc were added in combination with Wnt3a-conditioned medium. The FZD8-Fc variants and JAG1-Fc were used at concentrations of 20, 4, 0.8, 0.16, 0.03, 0.006, 0.0012, and 0.0003 ug/ml. The cells were incubated in 25% Wnt3A-conditioned medium that had been prepared from L cells that stably express Wnt3a. After overnight incubation (approximately 18 hrs), luciferase levels were measured using a Steady-Glo® luciferase assay kit (Promega, Madison, Wis.).
The blocking activity of the FZD8-Fc variants was determined and is presented in Table 3 as relative activity as compared to the same reference standard run in each assay which was set at 100%.
In general terms: A reporter such as luciferase makes a cellular process visible.

Data set [2] deals with C28 colon tumor xenografts. Put plainly: C28 colon tumor xenograft, doses and dosing regimen. The format is in vivo, NOD/SCID mice. Conditions: from day 2. How it is done:
The effect of multiple doses and dosing regimen of FZD8-Fc (54F03) on the growth of C28 colon tumor xenografts was analyzed. Dissociated C28 cells (10,000 per animal) were injected subcutaneously into 6-8 week old male NOD/SCID mice. On day 2, mice were randomized into 6 groups of 10 animals each. Animals were injected with either control antibody or FZD8-Fc at doses of 1.5 mg/kg (twice a week), 5 mg/kg (once and twice a week) and 15 mg/kg (once and twice a week). Administration of the antibody and FZD8-Fc was performed via injection into the intraperitoneal cavity. Tumor growth was monitored weekly and tumor measurements were initiated once tumors were palpable. Tumors were measured twice a week and tumor volume was determined as described herein.

“And” between values parts separate entries of the source, which are not always exact repeats. Equal entries are not always repeated.

Turning to “54F03: Fri domain of human FZD8 fused to human IgG1 Fc with GRA linker; SEQ ID NO:1”, the “reduction of tumor growth as compared to control antibody” value with C28 colon tumor worked out at 48%. For the same substance, the tumor take rate in the data set on PN4 pancreatic tumors was 3 mice out of 30 mice. Besides, in data set [1], the “% Relative Activity” value is 107% and 143%. Besides, in data set [2] (1.5 mg/kg twice a week i.p.), the “reduction of growth over control antibody” value turned out to be 52%. In addition, the “reduction in tumor growth over control antibody” value in data set [2] (15 mg/kg twice weekly i.p.) was found to be 83%.
